Measured values published in PMC9005681, “Use of AD Informer Set compounds to explore validity of novel targets in Alzheimer's disease pathology” (Alzheimer's & Dementia : Translational Research & Clinical …, 2022).
Where “and” joins values, the source holds several entries; their conditions need not be identical. Identical values can stand only once. One block for each compound: values may come before it.

What was measured:
Assay in all cases: PDSP GPCR panel primary binding assays at 10 μM
Details in all cases: primary assay
[1] = target: T1, cloned human or rodent CNS receptors, channels, and transporters (PDSP panel) (Homo sapiens, UniProt P18089)
T1 construct: expressed in transfected cells
T1 sequence (P18089 1-450): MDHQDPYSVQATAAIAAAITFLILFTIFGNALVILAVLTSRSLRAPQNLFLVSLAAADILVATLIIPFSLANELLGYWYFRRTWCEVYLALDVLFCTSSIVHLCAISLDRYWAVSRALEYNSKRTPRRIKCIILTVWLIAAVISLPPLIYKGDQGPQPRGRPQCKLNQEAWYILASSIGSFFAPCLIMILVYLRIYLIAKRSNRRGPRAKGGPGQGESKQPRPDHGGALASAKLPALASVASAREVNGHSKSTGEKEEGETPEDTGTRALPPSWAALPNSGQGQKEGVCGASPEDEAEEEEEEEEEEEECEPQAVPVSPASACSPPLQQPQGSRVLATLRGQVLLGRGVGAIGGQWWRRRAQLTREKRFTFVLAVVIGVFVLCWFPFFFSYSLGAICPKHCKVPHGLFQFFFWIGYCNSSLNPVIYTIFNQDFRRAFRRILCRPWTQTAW
In short: (§1)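 Radioligand displacement at cloned human or rodent CNS targets: 46–47 primary binding assays run in quadruplicate at 10 μM. Targets where the compound displaced an average of >50% of radiolabeled standard ligand went to secondary binding in 11-point dose-response, in triplicate; none run for H3, PBR or GABAA.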

[2] = target: T2, cloned human or rodent CNS receptors, channels, and transporters (PDSP panel) (Homo sapiens, UniProt P35372)
T2 construct: expressed in transfected cells
T2 sequence (P35372 whole entry): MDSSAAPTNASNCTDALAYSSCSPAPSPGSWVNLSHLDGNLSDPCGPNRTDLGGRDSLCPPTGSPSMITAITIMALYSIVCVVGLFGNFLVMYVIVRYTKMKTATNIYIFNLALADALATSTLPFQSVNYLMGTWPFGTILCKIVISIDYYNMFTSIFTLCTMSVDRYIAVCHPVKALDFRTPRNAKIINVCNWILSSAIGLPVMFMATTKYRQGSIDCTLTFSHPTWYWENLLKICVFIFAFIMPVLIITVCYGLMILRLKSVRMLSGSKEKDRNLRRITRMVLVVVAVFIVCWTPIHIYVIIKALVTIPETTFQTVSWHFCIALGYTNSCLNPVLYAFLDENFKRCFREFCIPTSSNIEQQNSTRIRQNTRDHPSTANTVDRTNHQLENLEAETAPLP
In short: as §1

[3] = target: T3, cloned human or rodent CNS receptors, channels, and transporters (PDSP panel) (Homo sapiens, UniProt P21917)
T3 construct: expressed in transfected cells
T3 sequence (P21917 1-419): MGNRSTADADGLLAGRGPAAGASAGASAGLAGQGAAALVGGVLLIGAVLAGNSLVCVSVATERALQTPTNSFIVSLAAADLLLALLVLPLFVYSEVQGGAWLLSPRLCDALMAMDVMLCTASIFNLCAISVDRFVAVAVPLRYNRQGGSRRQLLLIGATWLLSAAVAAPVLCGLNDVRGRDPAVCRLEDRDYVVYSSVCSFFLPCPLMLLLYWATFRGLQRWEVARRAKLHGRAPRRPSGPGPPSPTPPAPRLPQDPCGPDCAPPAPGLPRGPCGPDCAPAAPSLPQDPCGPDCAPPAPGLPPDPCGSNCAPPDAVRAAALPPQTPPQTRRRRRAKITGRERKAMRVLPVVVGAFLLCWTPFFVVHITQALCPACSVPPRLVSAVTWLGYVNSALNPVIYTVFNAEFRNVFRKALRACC
In short: as §1

[4] = target: T4, cloned human or rodent CNS receptors, channels, and transporters (PDSP panel) (Homo sapiens, UniProt P25100)
T4 construct: expressed in transfected cells
T4 sequence (P25100 1-572): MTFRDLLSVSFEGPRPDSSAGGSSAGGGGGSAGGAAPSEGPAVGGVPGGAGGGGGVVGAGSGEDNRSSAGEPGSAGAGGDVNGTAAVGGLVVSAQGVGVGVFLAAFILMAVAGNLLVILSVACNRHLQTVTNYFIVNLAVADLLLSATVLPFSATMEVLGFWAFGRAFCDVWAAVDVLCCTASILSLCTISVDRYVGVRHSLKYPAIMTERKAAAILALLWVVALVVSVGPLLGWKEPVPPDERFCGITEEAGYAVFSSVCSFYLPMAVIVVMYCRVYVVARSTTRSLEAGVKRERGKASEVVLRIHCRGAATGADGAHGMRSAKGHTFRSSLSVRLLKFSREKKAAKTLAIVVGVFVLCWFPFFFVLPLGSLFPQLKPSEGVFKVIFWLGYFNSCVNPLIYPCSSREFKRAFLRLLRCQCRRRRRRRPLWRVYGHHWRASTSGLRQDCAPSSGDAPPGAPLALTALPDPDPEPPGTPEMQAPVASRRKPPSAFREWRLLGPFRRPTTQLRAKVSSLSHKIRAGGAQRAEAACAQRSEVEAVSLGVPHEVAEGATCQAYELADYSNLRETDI
In short: as §1

[5] = target: T5, cloned human or rodent CNS receptors, channels, and transporters (PDSP panel) (Homo sapiens, UniProt P31645)
T5 construct: expressed in transfected cells
T5 sequence (P31645 whole entry): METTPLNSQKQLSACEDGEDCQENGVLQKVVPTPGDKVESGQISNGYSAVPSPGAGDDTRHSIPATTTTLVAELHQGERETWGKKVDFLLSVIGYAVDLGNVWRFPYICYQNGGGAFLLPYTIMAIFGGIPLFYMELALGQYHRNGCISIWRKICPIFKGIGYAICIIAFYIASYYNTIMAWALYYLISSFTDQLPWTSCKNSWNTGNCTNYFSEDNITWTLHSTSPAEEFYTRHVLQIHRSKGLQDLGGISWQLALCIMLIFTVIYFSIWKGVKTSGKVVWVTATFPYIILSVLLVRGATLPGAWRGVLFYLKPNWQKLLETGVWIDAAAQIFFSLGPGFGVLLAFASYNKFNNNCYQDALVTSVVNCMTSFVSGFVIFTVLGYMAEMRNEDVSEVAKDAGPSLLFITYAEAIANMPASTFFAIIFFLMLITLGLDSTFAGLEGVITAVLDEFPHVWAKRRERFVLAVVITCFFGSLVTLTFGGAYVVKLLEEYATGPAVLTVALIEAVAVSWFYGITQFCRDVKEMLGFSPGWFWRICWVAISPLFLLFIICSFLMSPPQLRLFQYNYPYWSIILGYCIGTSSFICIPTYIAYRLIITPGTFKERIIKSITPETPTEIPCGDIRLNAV
In short: as §1

[6] = target: T6, cloned human or rodent CNS receptors, channels, and transporters (PDSP panel) (Homo sapiens, UniProt P47898)
T6 construct: expressed in transfected cells
T6 sequence (P47898 whole entry): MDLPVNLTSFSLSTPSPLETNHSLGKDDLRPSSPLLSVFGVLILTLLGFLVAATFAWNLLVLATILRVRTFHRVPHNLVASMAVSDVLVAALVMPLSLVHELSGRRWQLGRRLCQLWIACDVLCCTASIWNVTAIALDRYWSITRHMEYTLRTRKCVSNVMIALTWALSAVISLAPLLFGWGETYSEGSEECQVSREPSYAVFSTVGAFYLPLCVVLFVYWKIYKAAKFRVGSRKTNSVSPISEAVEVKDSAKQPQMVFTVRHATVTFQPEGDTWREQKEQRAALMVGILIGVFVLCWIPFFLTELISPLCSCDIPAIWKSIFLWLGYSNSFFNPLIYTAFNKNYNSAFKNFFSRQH
In short: as §1

[7] = Receptor Alpha2B, 10 μM, mean of Inhibition 1-4
[8] = Receptor MOR, 10 μM, mean of Inhibition 1-4
[9] = Receptor D4, 10 μM, mean of Inhibition 1-4
[10] = Receptor Alpha1D, 10 μM, mean of Inhibition 1-4
[11] = Receptor SERT, 10 μM, mean of Inhibition 1-4
[12] = Receptor 5-HT5A, 10 μM, mean of Inhibition 1-4

SMILES: c1cn2cc(-c3ccc4cn[nH]c4c3)nc(Nc3ccc(N4CCOCC4)cc3)c2n1 [UNC10302678A, Entospletinib (GS-9973)]
Inhibition 1 ([1]; Receptor Alpha2B, 10 μM): 1.15%
Inhibition 2 ([1]; Receptor Alpha2B, 10 μM): 1.83%
Inhibition 3 ([1]; Receptor Alpha2B, 10 μM): -12.73%
Inhibition 4 ([1]; Receptor Alpha2B, 10 μM): -4.05%
Mean % [1, 7]: -3.45%
Inhibition 1 ([2]; Receptor MOR, 10 μM): -0.9%
Inhibition 2 ([2]; Receptor MOR, 10 μM): 12.23%
Inhibition 3 ([2]; Receptor MOR, 10 μM): 5.91%
Inhibition 4 ([2]; Receptor MOR, 10 μM): -3.58%
Mean % [2, 8]: 3.42%
Inhibition 1 ([3]; Receptor D4, 10 μM): 5.16%
Inhibition 2 ([3]; Receptor D4, 10 μM): 7.36%
Inhibition 3 ([3]; Receptor D4, 10 μM): -2.39%
Inhibition 4 ([3]; Receptor D4, 10 μM): 2.39%
Mean % [3, 9]: 3.13%
Inhibition 1 ([4]; Receptor Alpha1D, 10 μM): -9.56%
Inhibition 2 ([4]; Receptor Alpha1D, 10 μM): -12.54%
Inhibition 3 ([4]; Receptor Alpha1D, 10 μM): -12.26%
Inhibition 4 ([4]; Receptor Alpha1D, 10 μM): -10.27%
Mean % [4, 10]: -11.16%
Inhibition 1 ([5]; Receptor SERT, 10 μM): 60.12%
Inhibition 2 ([5]; Receptor SERT, 10 μM): 23.39% and 14.88%
Inhibition 3 ([5]; Receptor SERT, 10 μM): 22.83% and 32.36%
Inhibition 4 ([5]; Receptor SERT, 10 μM): 31.59% and 27.97%
Mean % [5, 11]: 34.48% and 22.48%
Inhibition 1 ([6]; Receptor 5-HT5A, 10 μM): 7.17%
Inhibition 2 ([6]; Receptor 5-HT5A, 10 μM): -43.49%
Inhibition 3 ([6]; Receptor 5-HT5A, 10 μM): -3.12%
Inhibition 4 ([6]; Receptor 5-HT5A, 10 μM): -6.68%
Mean % [6, 12]: -11.53%

Mean % ([1]; Alpha2B, mean inhibition): 9.85%
Inhibition 1 ([1]; Alpha2B, replicate 1): 12.19%
Inhibition 2 ([1]; Alpha2B, replicate 2): 4.49%
Inhibition 3 ([1]; Alpha2B, replicate 3): 0.5%
Inhibition 4 ([1]; Alpha2B, replicate 4): 22.22%
Mean % ([2]; MOR, mean inhibition): -0.18%
Inhibition 1 ([2]; MOR, replicate 1): -0.8%
Inhibition 2 ([2]; MOR, replicate 2): 0.06%
Inhibition 3 ([2]; MOR, replicate 3): 1.4%
Inhibition 4 ([2]; MOR, replicate 4): -1.38%
Mean % ([3]; D4, mean inhibition): 2.7%
Inhibition 1 ([3]; D4, replicate 1): 2.1%
Inhibition 2 ([3]; D4, replicate 2): -2.96%
Inhibition 3 ([3]; D4, replicate 3): 3.54%
Inhibition 4 ([3]; D4, replicate 4): 8.13%
Mean % ([4]; Alpha1D, mean inhibition): -12.86%
Inhibition 1 ([4]; Alpha1D, replicate 1): -4.16%
Inhibition 2 ([4]; Alpha1D, replicate 2): -21.92%
Inhibition 3 ([4]; Alpha1D, replicate 3): -15.38%
Inhibition 4 ([4]; Alpha1D, replicate 4): -9.98%
Mean % ([5]; SERT, mean inhibition): 7.19% and 15.11%
Inhibition 1 ([5]; SERT, replicate 1): 10.02% and 22.3%
Inhibition 2 ([5]; SERT, replicate 2): -5.87% and 16.69%
Inhibition 3 ([5]; SERT, replicate 3): 7.61% and 10.49%
Inhibition 4 ([5]; SERT, replicate 4): 16.99% and 10.96%
Mean % ([6]; 5-HT5A, mean inhibition): 0.62% and -5.72%
Inhibition 1 ([6]; 5-HT5A, replicate 1): 13.64% and 5.79%
Inhibition 2 ([6]; 5-HT5A, replicate 2): -10.06% and -11.12%
Inhibition 3 ([6]; 5-HT5A, replicate 3): -4.07% and -16.75%
Inhibition 4 ([6]; 5-HT5A, replicate 4): 2.96% and -0.78%
SMILES: CNc1nc(C)nc(N[C@H]2CCC[C@@H](C(=O)NCc3ccc(C#N)cc3C(F)(F)F)C2)n1 [UNC10302679A, GSK2256294A]

SMILES: O=c1oc2ccccc2cc1-c1cn2cc(Cc3ccc(F)cc3)sc2n1 [UNC10302680A, iMDK]
Inhibition 1 ([1]; Receptor Alpha2B, 10 μM): 0.83%
Inhibition 2 ([1]; Receptor Alpha2B, 10 μM): 1.88%
Inhibition 3 ([1]; Receptor Alpha2B, 10 μM): -7.31%
Inhibition 4 ([1]; Receptor Alpha2B, 10 μM): 7.87%
Mean % [1, 7]: 0.82%
Inhibition 1 ([2]; Receptor MOR, 10 μM): 9.07%
Inhibition 2 ([2]; Receptor MOR, 10 μM): 9.93%
Inhibition 3 ([2]; Receptor MOR, 10 μM): 2.65%
Inhibition 4 ([2]; Receptor MOR, 10 μM): 1.88%
Mean % [2, 8]: 5.88%
Inhibition 1 ([3]; Receptor D4, 10 μM): -9.94%
Inhibition 2 ([3]; Receptor D4, 10 μM): -4.88%
Inhibition 3 ([3]; Receptor D4, 10 μM): -6.5%
Inhibition 4 ([3]; Receptor D4, 10 μM): 11.95%
Mean % [3, 9]: -2.34%
Inhibition 1 ([4]; Receptor Alpha1D, 10 μM): -7.71%
Inhibition 2 ([4]; Receptor Alpha1D, 10 μM): -9.56%
Inhibition 3 ([4]; Receptor Alpha1D, 10 μM): -10.98%
Inhibition 4 ([4]; Receptor Alpha1D, 10 μM): -17.23%
Mean % [4, 10]: -11.37%
Inhibition 1 ([5]; Receptor SERT, 10 μM): -12.44% and -8.39%
Inhibition 4 ([5]; Receptor SERT, 10 μM): -3% and 3.01%
Mean % [5, 11]: -8.37% and -12.73%
Inhibition 1 ([6]; Receptor 5-HT5A, 10 μM): -14.99%
Inhibition 2 ([6]; Receptor 5-HT5A, 10 μM): -18.16%
Inhibition 3 ([6]; Receptor 5-HT5A, 10 μM): -6.28%
Inhibition 4 ([6]; Receptor 5-HT5A, 10 μM): -0.35%
Mean % [6, 12]: -9.95%
